Among the data in patent US9409905B2, “Antibacterial compounds and methods for use” (PTC THERAPEUTICS, INC., priority 2011, dated 2016) are MIC values, retold here.

Experiment [1] concerns Escherichia coli (E. coli) BAS849. Description: Antibacterial activity, microbroth dilution MIC (Table 1). The format is cell-based. The following applies: microbroth dilution, super sensitive Gram-negative E. coli BAS849, read-out: MIC, BAS849. The source says: (§1) The antibacterial activity from a microbroth dilution method may be presented as the minimum inhibitory concentration (MIC in μg/mL). The MIC value is the lowest concentration of drug which prevents macroscopically visible growth under test conditions.
(§2) Antibacterial activity of test compounds against the super sensitive Gram-negative Escherichia coli (E. coli) BAS849 bacterium, the control Gram-negative E. coli 25922 strain and the Gram-positive Staphylococcus aureus (S. aureus) 29213 bacterium are shown in Table 1.
Background: Broth dilution looks for growth in wells or tubes with falling amounts of substance.

In experiment [2] the test system is Staphylococcus aureus (S. aureus) 29213. Described as above. The format is cell-based. The conditions noted are these: microbroth dilution, Gram-positive S. aureus 29213, read-out: MIC, 29213.
Excerpt: as §1, §2

Experiment [3] has as its system E. coli 25922. The description is as above. The following applies: Escherichia coli; microbroth dilution; control Gram-negative E. coli 25922 strain; read-out: MIC, 25922. It counts as cell-based, Escherichia coli.
Excerpt: as §1, §2

For experiment [4], the system named is E. coli LZ3111. Description: Antibacterial activity, MIC, quinolone resistant strain (Table 2). It counts as cell-based. The following applies: Escherichia coli, LZ3111, read-out: MIC LZ3111.
Excerpt: as §1
Mutations in these regions are known to confer a high level resistance to the quinolone class of antibiotics.

SMILES strings stand for the structures. ≈ marks a conversion by molar mass, not a printed value.

Regarding `CCc1cc(C(=O)O)c(=O)[nH]c1-c1ccc2nc(CN(CC)CC)cn2c1.Cl.Cl` [Cpd 63, 6-(2-((diethylamino)methyl)imidazo[1,2-a]pyridin-6-yl)-5-ethyl-2-oxo-1,2-dihydropyridine-3-carboxylic acid dihydrochloride], the MIC in experiment [1], in experiment [2], in experiment [3] and in experiment [4] was 12.5 to 150 µg/mL throughout.
Take `CCc1cc(C(=O)O)c(=O)[nH]c1-c1cc2cc(CN3CCCC3)n(C)c2s1.Cl` [Cpd 64, 5-ethyl-6-(6-methyl-5-(pyrrolidin-1-ylmethyl)-6H-thieno[2,3-b]pyrrol-2-yl)-2-oxo-1,2-dihydropyridine-3-carboxylic acid hydrochloride]: the MIC was under 1 µg/mL in experiment [1], 12.5 to 150 µg/mL in experiment [2], 12.5 to 150 µg/mL in experiment [3] and 12.5 to 150 µg/mL in experiment [4].
Take `CCc1cc(C(=O)O)c(=O)[nH]c1-c1cc2cc(CN(C)C)n(C)c2s1.Cl` [Cpd 65, 6-(5-((dimethylamino)methyl)-6-methyl-6H-thieno[2,3-b]pyrrol-2-yl)-5-ethyl-2-oxo-1,2-dihydropyridine-3-carboxylic acid hydrochloride]: the MIC was under 1 µg/mL in experiment [1], 12.5 to 150 µg/mL in experiment [2], 3.5 to 12.5 µg/mL in experiment [3] and 12.5 to 150 µg/mL in experiment [4].
Consider `CCc1cc(C(=O)O)c(=O)[nH]c1-c1ccc2c(c1)cc1n2CCNC1` [Cpd 66, 5-ethyl-2-oxo-6-(1,2,3,4-tetrahydropyrazino[1,2-a]indol-8-yl)-1,2-dihydropyridine-3-carboxylic acid], for which the MIC is under 1 µg/mL in experiment [1], 12.5 to 150 µg/mL (≈ 37.1 to 445 µM) in experiment [2], under 1 µg/mL in experiment [3] and 12.5 to 150 µg/mL (≈ 37.1 to 445 µM) in experiment [4].
In the case of `CCc1cc(C(=O)O)c(=O)[nH]c1-c1ccc2c(c1)cc([C@H]1CCCN1)n2C.Cl` [Cpd 67, (R)-5-ethyl-6-(1-methyl-2-(pyrrolidin-2-yl)-1H-indol-5-yl)-2-oxo-1,2-dihydropyridine-3-carboxylic acid hydrochloride], the MIC in experiment [1] is under 1 µg/mL; in experiment [2], 12.5 to 150 µg/mL; in experiment [3], 1 to 3.5 µg/mL; in experiment [4], 12.5 to 150 µg/mL.
Turning to `CCc1cc(C(=O)O)c(=O)[nH]c1-c1ccc2c(c1)cc([C@H]1CCCN1C)n2C` [Cpd 68, (R)-5-ethyl-6-(1-methyl-2-(1-methylpyrrolidin-2-yl)-1H-indol-5-yl)-2-oxo-1,2-dihydropyridine-3-carboxylic acid], the MIC in experiment [1] is under 1 µg/mL; in experiment [2] it was 12.5 to 150 µg/mL (≈ 32.9 to 395 µM); in experiment [3] it was 1 to 3.5 µg/mL (≈ 2.64 to 9.22 µM); in experiment [4] it was 12.5 to 150 µg/mL (≈ 32.9 to 395 µM).
Regarding `CCc1cc(C(=O)O)c(=O)[nH]c1-c1ccc2c(c1)cc([C@@H]1CCCN1)n2C.Cl` [Cpd 69, (S)-5-ethyl-6-(1-methyl-2-(pyrrolidin-2-yl)-1H-indol-5-yl)-2-oxo-1,2-dihydropyridine-3-carboxylic acid hydrochloride], the MIC in experiment [1] is under 1 µg/mL; in experiment [2], 12.5 to 150 µg/mL; in experiment [3], 1 to 3.5 µg/mL; in experiment [4], 12.5 to 150 µg/mL.
For `CCc1cc(C(=O)O)c(=O)[nH]c1-c1ccc2c(c1)cc(C1CNCCN1)n2C.Cl.Cl` (centres unmarked) [Cpd 70, 5-ethyl-6-(1-methyl-2-(piperazin-2-yl)-1H-indol-5-yl)-2-oxo-1,2-dihydropyridine-3-carboxylic acid dihydrochloride], the MIC was 3.5 to 12.5 µg/mL in experiment [1], 12.5 to 150 µg/mL in experiment [2], 12.5 to 150 µg/mL in experiment [3] and 12.5 to 150 µg/mL in experiment [4].
For `CCc1cc(C(=O)O)c(=O)[nH]c1-c1ccc2c(c1)cc(C1CNCCN1C)n2C.Cl.Cl` (centres unmarked) [Cpd 71, 5-ethyl-6-(1-methyl-2-(1-methylpiperazin-2-yl)-1H-indol-5-yl)-2-oxo-1,2-dihydropyridine-3-carboxylic acid dihydrochloride], the MIC was in the range of 3.5 to 12.5 µg/mL in experiment [1], 12.5 to 150 µg/mL in experiment [2], 12.5 to 150 µg/mL in experiment [3] and 12.5 to 150 µg/mL in experiment [4].
Regarding `CCc1cc(C(=O)O)c(=O)[nH]c1-c1ccc2c(c1)c(C#N)cn2C` [Cpd 72, 6-(3-cyano-1-methyl-1H-indol-5-yl)-5-ethyl-2-oxo-1,2-dihydropyridine-3-carboxylic acid], the MIC in experiment [1] lay in the range of 3.5 to 12.5 µg/mL (≈ 10.9 to 38.9 µM); in experiment [2], 12.5 to 150 µg/mL (≈ 38.9 to 467 µM); in experiment [3], 12.5 to 150 µg/mL (≈ 38.9 to 467 µM); in experiment [4] it was 12.5 to 150 µg/mL (≈ 38.9 to 467 µM).
As to `CCc1cc(C(=O)O)c(=O)[nH]c1-c1ccc2c(c1)c(C(N)=O)cn2C` [Cpd 73, 6-(3-carbamoyl-1-methyl-1H-indol-5-yl)-5-ethyl-2-oxo-1,2-dihydropyridine-3-carboxylic acid], the MIC in experiment [1], in experiment [2], in experiment [3] and in experiment [4] was 12.5 to 150 µg/mL (≈ 36.8 to 442 µM) throughout.
`CCc1cc(C(=O)O)c(=O)[nH]c1-c1ccc2c(c1)c(CN)cn2C` [Cpd 74, 6-(3-(aminomethyl)-1-methyl-1H-indol-5-yl)-5-ethyl-2-oxo-1,2-dihydropyridine-3-carboxylic acid]: the MIC in experiment [1], in experiment [2], in experiment [3] and in experiment [4] was 12.5 to 150 µg/mL (≈ 38.4 to 461 µM) in each case.
In the case of `CCc1cc(C(=O)O)c(=O)[nH]c1-c1ccc2c(c1)c(CN(C)C)cn2C` [Cpd 75, 6-(3-((dimethylamino)methyl)-1-methyl-1H-indol-5-yl)-5-ethyl-2-oxo-1,2-dihydropyridine-3-carboxylic acid], the MIC in experiment [1], in experiment [2], in experiment [3] and in experiment [4] was 12.5 to 150 µg/mL (≈ 35.4 to 424 µM) each time.
On to `CCc1cc(C(=O)O)c(=O)[nH]c1-c1ccc2c(c1)c(CN(CC)CC)cn2C` [Cpd 76, 6-(3-((diethylamino)methyl)-1-methyl-1H-indol-5-yl)-5-ethyl-2-oxo-1,2-dihydropyridine-3-carboxylic acid], for which the MIC in experiment [1], in experiment [2], in experiment [3] and in experiment [4] was 12.5 to 150 µg/mL (≈ 32.8 to 393 µM) each time.
Regarding `CCc1cc(C(=O)O)c(=O)[nH]c1-c1ccc2c(c1)c(CN(Cc1ccccc1)Cc1ccccc1)cn2C` [Cpd 77, 6-(3-((dibenzylamino)methyl)-1-methyl-1H-indol-5-yl)-5-ethyl-2-oxo-1,2-dihydropyridine-3-carboxylic acid], the MIC lay within 3.5 to 12.5 µg/mL (≈ 6.92 to 24.7 µM) in experiment [1], 3.5 to 12.5 µg/mL (≈ 6.92 to 24.7 µM) in experiment [2], 12.5 to 150 µg/mL (≈ 24.7 to 297 µM) in experiment [3] and 12.5 to 150 µg/mL (≈ 24.7 to 297 µM) in experiment [4].
Consider `CCc1cc(C(=O)O)c(=O)[nH]c1-c1ccc2c(cc(CN3CCCC3)n2C)n1` [Cpd 84, 5-ethyl-6-(1-methyl-2-(pyrrolidin-1-ylmethyl)-1H-pyrrolo[3,2-b]pyridin-5-yl)-2-oxo-1,2-dihydropyridine-3-carboxylic acid], for which the MIC in experiment [1] was 1 to 3.5 µg/mL (≈ 2.63 to 9.2 µM); in experiment [2], 12.5 to 150 µg/mL (≈ 32.9 to 394 µM); in experiment [3] it was 3.5 to 12.5 µg/mL (≈ 9.2 to 32.9 µM); in experiment [4] it was 12.5 to 150 µg/mL (≈ 32.9 to 394 µM).
For `CCc1cc(C(=O)O)c(=O)[nH]c1-c1ccc2c(c1)cc(C1=NCCN1)n2C` [Cpd 85, 6-(2-(4,5-dihydro-1H-imidazol-2-yl)-1-methyl-1H-indol-5-yl)-5-ethyl-2-oxo-1,2-dihydropyridine-3-carboxylic acid], the MIC in experiment [1] is 1 to 3.5 µg/mL (≈ 2.74 to 9.6 µM); in experiment [2], 12.5 to 150 µg/mL (≈ 34.3 to 412 µM); in experiment [3], 12.5 to 150 µg/mL (≈ 34.3 to 412 µM); in experiment [4], 12.5 to 150 µg/mL (≈ 34.3 to 412 µM).
Take `CCc1cc(C(=O)O)c(=O)[nH]c1-c1ccc2c(c1)cc(C1=NCCCN1)n2C` [Cpd 86, 5-ethyl-6-(1-methyl-2-(1,4,5,6-tetrahydropyrimidin-2-yl)-1H-indol-5-yl)-2-oxo-1,2-dihydropyridine-3-carboxylic acid]: the MIC in experiment [1], in experiment [2], in experiment [3] and in experiment [4] was 12.5 to 150 µg/mL (≈ 33 to 396 µM) throughout.
Regarding `CCc1cc(C(=O)O)c(=O)[nH]c1-c1ccc2c(c1)cc(C(C)(C)N(C)C)n2C` [Cpd 87, 6-(2-(2-(dimethylamino)propan-2-yl)-1-methyl-1H-indol-5-yl)-5-ethyl-2-oxo-1,2-dihydropyridine-3-carboxylic acid], the MIC in experiment [1] is under 1 µg/mL; in experiment [2] it was 12.5 to 150 µg/mL (≈ 32.8 to 393 µM); in experiment [3], 3.5 to 12.5 µg/mL (≈ 9.17 to 32.8 µM); in experiment [4], 12.5 to 150 µg/mL (≈ 32.8 to 393 µM).
As for `CCc1cc(C(=O)O)c(=O)[nH]c1-c1ccc2c(c1)cc(C(C)(C)N1CCCC1)n2C` [Cpd 88, 5-ethyl-6-(1-methyl-2-(2-(pyrrolidin-1-yl)propan-2-yl)-1H-indol-5-yl)-2-oxo-1,2-dihydropyridine-3-carboxylic acid], the MIC in experiment [1] was under 1 µg/mL; in experiment [2], 12.5 to 150 µg/mL (≈ 30.7 to 368 µM); in experiment [3] it was 3.5 to 12.5 µg/mL (≈ 8.59 to 30.7 µM); in experiment [4], 12.5 to 150 µg/mL (≈ 30.7 to 368 µM).
Regarding `CCc1cc(C(=O)O)c(=O)[nH]c1-c1cc2cc(CN3CCCC3)n(C)c2cc1C` [Cpd 89, 6-(1,6-dimethyl-2-(pyrrolidin-1-ylmethyl)-1H-indol-5-yl)-5-ethyl-2-oxo-1,2-dihydropyridine-3-carboxylic acid], the minimum inhibitory concentration (MIC) in experiment [1], in experiment [2], in experiment [3] and in experiment [4] was 12.5 to 150 µg/mL (≈ 31.8 to 381 µM) each time.
Consider `CCc1cc(C(=O)O)c(=O)[nH]c1-c1cc2cc(CN3CCCCC3)n(C)c2cc1C` [Cpd 90, 6-(1,6-dimethyl-2-(piperidin-1-ylmethyl)-1H-indol-5-yl)-5-ethyl-2-oxo-1,2-dihydropyridine-3-carboxylic acid], for which the MIC in experiment [1], in experiment [2], in experiment [3] and in experiment [4] was 12.5 to 150 µg/mL (≈ 30.7 to 368 µM) in each case.
In the case of `CCc1cc(C(=O)O)c(=O)[nH]c1-c1cc2cc(CN3CCOCC3)n(C)c2cc1Cl` [Cpd 91, 6-(6-chloro-1-methyl-2-(morpholinomethyl)-1H-indol-5-yl)-5-ethyl-2-oxo-1,2-dihydropyridine-3-carboxylic acid], the MIC in experiment [1], in experiment [2], in experiment [3] and in experiment [4] was 12.5 to 150 µg/mL (≈ 29.1 to 349 µM) in each case.

One may read the MIC as the least concentration at which growth counts as inhibited.
